Data set [1] in a line: Stability on exposure to the air at room temperature for 12 months, purity by HPLC. It counts as physicochemical. Conditions: after exposure to the air at room temperature for 12 months. Here is the method: The polymorphs of 4-aminopyridine or the polymorphs of the solvates thereof according to the present invention were exposed to the air at room temperature for 12 months, and then purities thereof were measured by using high performance liquid chromatography.
The above-mentioned eight polymorphs of 4-aminopyridine or of the solvates thereof according to the present invention were exposed to the air at room temperature for 12 months, and then purities thereof were measured by using high performance liquid chromatography. The obtained purity results thereof were shown as follows:
The purities were measured by using high performance liquid chromatography under the following conditions:
Chromatographic Column: Agilent extend-C18 (250*4.6 mm, 5 μ)
Mobile Phase: 0.01 mol/L of monopotassium phosphate solution containing 0.01 mol/L of sodium octanesulfonate (adjusted to pH 2.6 with phosphoric acid)-methanol (75:25);
Column Temperature: 40° C.;
Detection Wavelength: 264 nm;

Data set [2] has as its system multiple sclerosis patients. Particulars: clinical trials (Phase III); cited from earlier work.
For data set [3], the system named is multiple sclerosis patients. Particulars: injected in 11 patients with eyesight and motor function impaired because of multiple sclerosis, 1983; cited from earlier work.

On to `Nc1ccncc1` [Polymorph I, 4-aminopyridine], for which, in data set [1], the “Purity (%)” value was 99.66%.
As for `Nc1ccncc1` [Polymorph II, 4-aminopyridine], the “Purity (%)” value in data set [1] came to 100%.
In the case of `Nc1ccncc1` [Polymorph III, 4-aminopyridine], the “Purity (%)” value in data set [1] was found to be 100%.
For the compound `Nc1ccncc1` [Polymorph IV, 4-aminopyridine], the “Purity (%)” value in data set [1] was 100%.
Same read-out and setting: to `Nc1ccncc1` [Polymorph V, 4-aminopyridine] belongs 100%; to `Nc1ccncc1` [Polymorph VI, 4-aminopyridine], 99.98%; to `Nc1ccncc1` [Polymorph VII, 4-aminopyridine], 100%.
For `Nc1ccncc1` [Polymorph VIII, 4-aminopyridine], the “Purity (%)” value in data set [1] was found to be 100%.
With `Nc1ccncc1` [dalfampridine, 4-aminopyridine], the “walking speed versus placebo” value in data set [2] is recorded as “faster than that in patients who took a placebo”. Besides, in data set [3], the eyesight result is “improved” and the walking speed result is listed as “improved”.

Values taken from patent publication US20130197040A1, “POLYMORPHS OF DALFAMPRIDINE, PREPARATIONS AND USES THEREOF” (priority 2010, published 2013).
